According to publication PMC4823724 (Scientific Reports, 2016):

Key:
(UniProt G7TKC9) = biological target: T1, (UniProt G7TKC9); assay: biochemical
T1 construct: gene XOC_4190

(UniProt G7TDB2) = biological target: T2, (UniProt G7TDB2); assay: biochemical
T2 construct: gene XOC_2102

XOC_4190ΔG = biological target: T3, XOC_4190ΔG
T3 construct: gene XOC_4190

T1 sequence (G7TKC9 1-656 limits assumed): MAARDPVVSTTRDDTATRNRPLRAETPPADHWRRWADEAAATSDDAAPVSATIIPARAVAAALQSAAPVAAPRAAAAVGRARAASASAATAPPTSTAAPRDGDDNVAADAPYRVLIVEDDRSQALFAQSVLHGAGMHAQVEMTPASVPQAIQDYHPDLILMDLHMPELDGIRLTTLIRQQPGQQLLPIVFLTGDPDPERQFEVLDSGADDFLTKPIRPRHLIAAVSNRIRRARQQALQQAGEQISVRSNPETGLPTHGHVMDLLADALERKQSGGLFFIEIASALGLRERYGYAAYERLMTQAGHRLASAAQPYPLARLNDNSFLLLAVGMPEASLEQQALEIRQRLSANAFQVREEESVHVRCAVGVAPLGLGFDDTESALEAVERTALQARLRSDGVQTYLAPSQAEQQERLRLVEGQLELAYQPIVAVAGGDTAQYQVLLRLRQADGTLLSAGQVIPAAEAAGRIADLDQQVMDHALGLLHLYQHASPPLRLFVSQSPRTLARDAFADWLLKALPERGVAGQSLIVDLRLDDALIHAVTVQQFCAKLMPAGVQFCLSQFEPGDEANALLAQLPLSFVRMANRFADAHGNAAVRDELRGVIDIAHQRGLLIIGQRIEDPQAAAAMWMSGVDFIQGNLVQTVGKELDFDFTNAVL
T2 sequence (G7TDB2 1-689): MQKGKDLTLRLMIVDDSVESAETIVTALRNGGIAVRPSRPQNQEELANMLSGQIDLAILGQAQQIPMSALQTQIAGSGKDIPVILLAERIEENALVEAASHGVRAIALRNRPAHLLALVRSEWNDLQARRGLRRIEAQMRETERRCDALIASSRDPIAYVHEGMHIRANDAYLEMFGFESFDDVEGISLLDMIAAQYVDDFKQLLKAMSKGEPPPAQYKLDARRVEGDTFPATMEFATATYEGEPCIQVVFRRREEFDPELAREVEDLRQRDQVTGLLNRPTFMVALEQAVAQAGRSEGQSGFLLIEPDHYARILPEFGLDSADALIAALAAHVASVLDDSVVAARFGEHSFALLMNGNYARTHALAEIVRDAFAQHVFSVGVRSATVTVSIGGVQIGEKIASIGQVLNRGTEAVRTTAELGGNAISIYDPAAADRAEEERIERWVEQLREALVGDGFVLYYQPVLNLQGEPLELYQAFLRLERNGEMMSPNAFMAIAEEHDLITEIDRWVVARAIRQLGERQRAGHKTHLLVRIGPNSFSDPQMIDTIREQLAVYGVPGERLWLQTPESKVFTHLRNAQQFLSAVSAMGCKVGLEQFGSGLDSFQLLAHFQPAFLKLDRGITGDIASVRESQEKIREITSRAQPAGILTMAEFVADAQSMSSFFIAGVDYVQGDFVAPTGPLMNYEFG

Structure (SMILES): Nc1nc2c(ncn2[C@@H]2O[C@@H]3COP(=O)(O)O[C@H]4[C@@H](O)[C@H](n5cnc6c(=O)[nH]c(N)nc65)O[C@@H]4COP(=O)(O)O[C@H]3[C@H]2O)c(=O)[nH]1 [c-di-GMP]
- Kd ((UniProt G7TKC9)): 4.59 ± 0.36 µM
- Kd ((UniProt G7TDB2)): 2.9 ± 0.13 µM
- Kd (XOC_4190ΔG): 4.46 ± 0.28 µM
